From patent US8952169B2 (Genentech, Inc., priority 2012, dated 2015)

Legend:
[1] = target: hNav1.5 (Homo sapiens (Human), UniProt Q14524); assay: Patch voltage clamp electrophysiology (PatchXpress), HEK-293 cells, inactivated state block; details: read-out: EP_PX 293 hNav1.5 (IC50), β1 coexpressed, holding −60 mV;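 further: control was the sodium current recorded in 0.5% DMSO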
[2] = target: T1, hNav1.7 (Homo sapiens (Human), UniProt Q15858); assay: Tritiated aryl sulfonamide binding to membranes from cells expressing hNav1.7 and the β1 subunit (competitive binding); details: read-out: NaV1.7 395 Memb Binding (IC50)
T1 sequence (Q15858 whole entry, looked up): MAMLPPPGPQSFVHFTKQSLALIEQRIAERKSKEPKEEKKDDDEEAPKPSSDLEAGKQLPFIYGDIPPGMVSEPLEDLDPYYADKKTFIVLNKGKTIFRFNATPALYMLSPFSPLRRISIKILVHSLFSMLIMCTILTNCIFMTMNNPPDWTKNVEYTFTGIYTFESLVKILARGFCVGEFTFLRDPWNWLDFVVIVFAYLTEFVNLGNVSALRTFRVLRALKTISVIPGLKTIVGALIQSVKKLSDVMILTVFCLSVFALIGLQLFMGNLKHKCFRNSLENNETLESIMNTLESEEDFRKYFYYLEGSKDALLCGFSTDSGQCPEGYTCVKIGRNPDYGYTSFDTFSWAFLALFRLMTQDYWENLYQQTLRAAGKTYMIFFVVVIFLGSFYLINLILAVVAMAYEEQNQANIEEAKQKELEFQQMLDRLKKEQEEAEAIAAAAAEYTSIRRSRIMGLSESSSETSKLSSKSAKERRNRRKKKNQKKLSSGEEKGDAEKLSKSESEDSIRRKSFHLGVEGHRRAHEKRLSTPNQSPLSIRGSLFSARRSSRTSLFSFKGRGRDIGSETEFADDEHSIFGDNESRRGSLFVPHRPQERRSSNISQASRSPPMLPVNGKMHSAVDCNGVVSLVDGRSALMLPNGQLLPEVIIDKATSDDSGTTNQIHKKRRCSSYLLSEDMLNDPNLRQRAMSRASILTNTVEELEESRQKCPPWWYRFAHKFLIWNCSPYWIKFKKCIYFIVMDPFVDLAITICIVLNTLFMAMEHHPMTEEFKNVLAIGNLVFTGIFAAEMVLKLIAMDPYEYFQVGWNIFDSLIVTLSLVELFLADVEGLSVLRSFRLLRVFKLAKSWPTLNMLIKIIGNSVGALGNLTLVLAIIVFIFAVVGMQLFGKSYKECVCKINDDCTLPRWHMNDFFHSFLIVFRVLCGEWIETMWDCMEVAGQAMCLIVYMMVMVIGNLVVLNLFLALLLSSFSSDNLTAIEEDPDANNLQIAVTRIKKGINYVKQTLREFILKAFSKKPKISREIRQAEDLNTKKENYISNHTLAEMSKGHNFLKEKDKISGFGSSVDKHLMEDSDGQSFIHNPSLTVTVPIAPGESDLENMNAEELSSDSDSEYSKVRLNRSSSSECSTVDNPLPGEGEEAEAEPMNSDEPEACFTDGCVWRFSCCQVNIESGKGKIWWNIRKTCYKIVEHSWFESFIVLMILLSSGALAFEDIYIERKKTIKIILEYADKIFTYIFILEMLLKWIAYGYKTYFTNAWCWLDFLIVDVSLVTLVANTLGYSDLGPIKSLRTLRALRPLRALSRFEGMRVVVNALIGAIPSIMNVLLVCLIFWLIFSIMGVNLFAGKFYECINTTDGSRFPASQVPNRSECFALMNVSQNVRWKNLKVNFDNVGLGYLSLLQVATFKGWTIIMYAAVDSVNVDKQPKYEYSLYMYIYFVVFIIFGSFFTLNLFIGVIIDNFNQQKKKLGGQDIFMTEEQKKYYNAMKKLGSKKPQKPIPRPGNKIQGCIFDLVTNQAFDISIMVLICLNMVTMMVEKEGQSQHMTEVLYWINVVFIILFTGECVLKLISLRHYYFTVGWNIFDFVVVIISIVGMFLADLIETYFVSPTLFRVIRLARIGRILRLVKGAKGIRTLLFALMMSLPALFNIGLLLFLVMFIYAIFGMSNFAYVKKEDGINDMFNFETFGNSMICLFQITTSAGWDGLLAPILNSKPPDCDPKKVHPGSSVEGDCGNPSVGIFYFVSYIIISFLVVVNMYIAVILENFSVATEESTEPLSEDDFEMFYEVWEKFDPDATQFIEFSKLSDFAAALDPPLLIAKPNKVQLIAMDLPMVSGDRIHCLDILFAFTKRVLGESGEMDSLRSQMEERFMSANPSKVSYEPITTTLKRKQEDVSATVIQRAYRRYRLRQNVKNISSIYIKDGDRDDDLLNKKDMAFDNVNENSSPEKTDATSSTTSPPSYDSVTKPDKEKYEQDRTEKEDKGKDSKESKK
T1 sequence (Q07699 whole entry partner, looked up): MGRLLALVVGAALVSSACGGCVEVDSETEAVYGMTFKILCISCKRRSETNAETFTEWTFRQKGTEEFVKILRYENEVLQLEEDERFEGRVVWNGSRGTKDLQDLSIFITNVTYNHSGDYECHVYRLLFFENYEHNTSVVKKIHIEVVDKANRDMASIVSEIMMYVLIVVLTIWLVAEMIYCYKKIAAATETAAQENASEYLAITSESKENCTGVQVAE
In short: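 Competitive displacement of 100 μM [3H]-labelled tritiated aryl sulfonamide from hNav1.7/β1 membranes, 18 h at room temperature in 100 mM NaCl, 20 mM Tris HCl pH 7.4. Non-specific binding defined with 1 μM unlabelled compound. Filter-bound radioactivity measured by liquid scintillation counting.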

[3] = target: T1, hNav1.7; assay: Patch voltage clamp electrophysiology (PatchXpress), HEK-293 cells, inactivated state block; type: cell-based; details: read-out: EP_PX 293 hNav1.7 (IC50)
[4] = membranes with hNav1.7 and β1 subunit, [3H]compound displacement, 18 h, room temperature
[5] = HEK-293 cells, β1 coexpressed, inactivated state, holding −60 mV

Sequence of hNav1.5 (Q14524 whole entry): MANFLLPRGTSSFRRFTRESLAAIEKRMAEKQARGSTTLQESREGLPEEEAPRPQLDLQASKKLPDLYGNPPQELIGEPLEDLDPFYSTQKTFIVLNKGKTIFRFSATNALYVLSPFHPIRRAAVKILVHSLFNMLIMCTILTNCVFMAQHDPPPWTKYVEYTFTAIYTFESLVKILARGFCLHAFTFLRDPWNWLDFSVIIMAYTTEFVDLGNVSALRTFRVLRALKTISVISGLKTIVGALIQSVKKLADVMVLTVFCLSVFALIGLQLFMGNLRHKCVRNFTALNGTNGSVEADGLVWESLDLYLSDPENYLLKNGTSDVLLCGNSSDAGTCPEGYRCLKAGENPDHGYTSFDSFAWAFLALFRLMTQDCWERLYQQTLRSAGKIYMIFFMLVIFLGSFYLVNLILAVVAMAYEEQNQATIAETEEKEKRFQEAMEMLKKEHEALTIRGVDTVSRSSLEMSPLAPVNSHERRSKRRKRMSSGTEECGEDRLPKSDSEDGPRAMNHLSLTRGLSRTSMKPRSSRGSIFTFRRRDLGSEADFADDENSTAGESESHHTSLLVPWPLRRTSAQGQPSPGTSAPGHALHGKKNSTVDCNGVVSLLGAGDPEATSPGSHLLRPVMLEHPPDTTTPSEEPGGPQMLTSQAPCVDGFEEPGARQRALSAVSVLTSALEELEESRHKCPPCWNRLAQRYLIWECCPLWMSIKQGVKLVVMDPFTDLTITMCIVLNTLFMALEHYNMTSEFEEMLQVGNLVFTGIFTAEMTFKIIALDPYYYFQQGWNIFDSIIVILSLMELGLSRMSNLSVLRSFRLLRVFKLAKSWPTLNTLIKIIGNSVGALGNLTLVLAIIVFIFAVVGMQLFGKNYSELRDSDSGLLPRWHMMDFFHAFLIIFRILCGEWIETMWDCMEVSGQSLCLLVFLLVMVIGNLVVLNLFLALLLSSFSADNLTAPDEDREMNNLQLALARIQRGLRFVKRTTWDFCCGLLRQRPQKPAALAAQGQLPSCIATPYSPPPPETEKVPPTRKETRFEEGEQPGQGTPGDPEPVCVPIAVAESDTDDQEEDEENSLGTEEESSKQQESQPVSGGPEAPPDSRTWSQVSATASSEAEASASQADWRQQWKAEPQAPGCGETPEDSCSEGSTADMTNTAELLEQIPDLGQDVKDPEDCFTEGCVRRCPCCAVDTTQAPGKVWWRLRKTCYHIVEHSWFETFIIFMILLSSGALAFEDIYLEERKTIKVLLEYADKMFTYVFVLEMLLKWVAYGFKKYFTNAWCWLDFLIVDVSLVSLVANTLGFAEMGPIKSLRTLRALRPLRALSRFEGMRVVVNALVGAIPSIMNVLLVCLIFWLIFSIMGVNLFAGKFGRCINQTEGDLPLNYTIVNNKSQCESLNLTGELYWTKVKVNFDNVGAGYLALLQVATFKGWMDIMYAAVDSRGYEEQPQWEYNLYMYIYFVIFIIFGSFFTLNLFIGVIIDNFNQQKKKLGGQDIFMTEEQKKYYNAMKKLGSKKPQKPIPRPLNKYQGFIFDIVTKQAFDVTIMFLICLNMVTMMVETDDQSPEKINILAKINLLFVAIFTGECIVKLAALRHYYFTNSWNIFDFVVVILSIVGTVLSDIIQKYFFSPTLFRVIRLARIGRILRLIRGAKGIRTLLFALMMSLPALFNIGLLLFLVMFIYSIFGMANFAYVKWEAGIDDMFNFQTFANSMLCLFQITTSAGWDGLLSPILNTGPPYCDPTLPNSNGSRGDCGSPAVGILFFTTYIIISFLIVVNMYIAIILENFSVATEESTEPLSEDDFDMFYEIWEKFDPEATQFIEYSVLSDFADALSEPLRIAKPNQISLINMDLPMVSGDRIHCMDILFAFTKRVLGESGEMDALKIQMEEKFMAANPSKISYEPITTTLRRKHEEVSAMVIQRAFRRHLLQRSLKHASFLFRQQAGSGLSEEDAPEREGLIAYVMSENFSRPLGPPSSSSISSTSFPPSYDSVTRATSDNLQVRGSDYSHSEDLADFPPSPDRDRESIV

| SMILES | IC50 [1] [nM] | IC50 [2, 4] [nM] | IC50 [3, 5] [nM] | IC50 [2] [nM] | IC50 [3] [nM] |
| --- | --- | --- | --- | --- | --- |
| CS(=O)(=O)NC(=O)c1cc(Cl)c(OCC2CC3C4CCC(C4)C3C2)cc1F (centres unmarked) | 743 | 9 | 3.6 | – | – |
| O=C(NS(=O)(=O)N1CC[C@H](O)C1)c1cc(C2CC2)c(OCC23CC4CC(CC(C4)C2)C3)cc1F | 110 | 10 | – | – | – |
| O=C(NS(=O)(=O)N1CC(F)C1)c1cc(C2CC2)c(OCC23CC4CC(CC(C4)C2)C3)cc1F | 422 | 1 | – | – | – |
| O=C(NS(=O)(=O)N1CC(F)(F)C1)c1cc(C2CC2)c(OCC23CC4CC(CC(C4)C2)C3)cc1F | 326 | 10 | – | – | – |
| O=C(NS(=O)(=O)NCCCO)c1cc(C2CC2)c(OCC23CC4CC(CC(C4)C2)C3)cc1F | 22 | 23 | 9.2 | – | – |
| COC1CN(S(=O)(=O)NC(=O)c2cc(C3CC3)c(OCC34CC5CC(CC(C5)C3)C4)cc2F)C1 | 144 | 3 | 24.9 | – | – |
| O=C(NS(=O)(=O)N1CCC1)c1cc(C2CC2)c(OCC2CCCCC2)cc1F | 40 | – | – | 6 | 1 |
| O=C(NS(=O)(=O)N1CCC1)c1cc(C2CC2)c(OCC2C3CC4CC(C3)CC2C4)cc1F (centres unmarked) | 130 | 1 | 9 | – | – |
| CS(=O)(=O)NC(=O)c1cc(C2CC2)c(OCC23CC4(F)CC(F)(CC(F)(C4)C2)C3)cc1F | 3500 | 14 | 20 | – | – |
| O=C(NS(=O)(=O)C1CC1)c1cc(C2CC2)c(OCC2CCC(F)(F)CC2)cc1F | 630 | 6 | 8 | – | – |
| O=C(NS(=O)(=O)C1CC1)c1cc(C2CC2)c(OCC23CC4(F)CC(F)(CC(F)(C4)C2)C3)cc1F | 430 | 5 | 20 | – | – |
| O=C(NS(=O)(=O)N1CCC1)c1cc(C2CC2)c(OCC2(C(F)(F)F)CCCC2)cc1F | 90 | 4 | 2 | – | – |
| O=C(NS(=O)(=O)C1CC1)c1cc(C2CC2)c(OCC23CC4CC(C2)C(F)(F)C(C4)C3)cc1F | 130 | 3 | 8 | – | – |
| O=C(NS(=O)(=O)N1CCC1)c1cc(C2CC2)c(OCC23CCCCC2C3)cc1F (centres unmarked) | 160 | 6 | 2 | – | – |
| O=C(NS(=O)(=O)N1CCC1)c1cnc(OCC23CC4CC(CC(C4)C2)C3)c(C2CC2)c1 | 7500 | 290 | 63 | – | – |
| COCCS(=O)(=O)NC(=O)c1cnc(OCC23CC4CC(CC(C4)C2)C3)c(C2CC2)c1 | 15300 | 720 | 370 | – | – |
| O=C(NS(=O)(=O)N1CCC1)c1cc(C2CC2)c(O[C@H]2C3CC4CC2C[C@](Cl)(C4)C3)cc1F | 21600 | 9 | 30 | – | – |
| CS(=O)(=O)NC(=O)c1cnc(OCC23CC4CC(CC(C4)C2)C3)c(C2CC2)c1 | 2580 | 72 | 17.9 | – | – |
| O=C(NS(=O)(=O)N1CC(O)C1)c1cc(C2CC2)c(OCC23CC4CC(CC(C4)C2)C3)cc1F | 60.6 | 7 | 10.7 | – | – |
| CS(=O)(=O)NC(=O)c1ccc(OCC23CC4CC(CC(C4)C2)C3)c(Br)c1 | 1950 | 51 | 7.6 | – | – |
| CC1(C)[C@H]2CC[C@H](COc3cc(F)c(C(=O)NS(C)(=O)=O)cc3Cl)[C@@H]1C2 | 1070 | 12 | – | – | – |
| CS(=O)(=O)NC(=O)c1ccc(OCC23CC4CC(CC(C4)C2)C3)c(C2CC2)c1 | 700 | 3 | 1.31 | – | – |
| CN(C)S(=O)(=O)NC(=O)c1cc(Cl)c(OCC23CC4CC(C2)C(F)(F)C(C4)C3)cc1F [Example 92] | 3760 | 221 | 53.1 | – | – |
| CS(=O)(=O)NC(=O)c1cc(C2CC2)c(OCC2CN(C(c3ccccc3)c3ccccc3)C2)cc1F [Example 440, 4-((1-benzhydrylazetidin-3-yl)methoxy)-5-cyclopropyl-2-fluoro-N-(methylsulfonyl)benzamide] | 2540 | 11 | 14 | – | – |
| CS(=O)(=O)NC(=O)c1cc(Cl)c(OCC2CC3C4CCC(C4)C3C2)cc1F (centres unmarked) [Example 445] | 743 | 9.3 | 3.6 | – | – |
| O=C(NS(=O)(=O)C1CC1)c1cc(C2CC2)c(OCC2(C(F)(F)F)CCCCC2)cc1F [Example 446, 5-cyclopropyl-N-(cyclopropylsulfonyl)-2-fluoro-4-((1-(trifluoromethyl)-cyclohexyl)methoxy)benzamide] | 160 | 1.6 | 3.1 | – | – |
| O=C(NS(=O)(=O)N1CCC1)c1cc(C2CC2)c(OCC2CCC(F)(F)CC2)cc1F [Example 448, N-(azetidin-1-ylsulfonyl)-5-cyclopropyl-4-((4,4-difluorocyclohexyl)-methoxy)-2-fluorobenzamide] | 940 | 18 | 7.8 | – | – |
